Laboratory results taken from publication PMC6832239, “The Effects of a Novel Series of KTTKS Analogues on Cytotoxicity and Proteolytic Activity” (Molecules, 2019).
Entries after “also recorded” stand apart in the source; their conditions may differ. Like-named read-outs stand apart in the source and are kept apart here. Residues, ends and D or L forms follow the SMILES beside them.

How the values were obtained:
collagen biosynthesis = tested on: collagen biosynthesis; design: method as in PMID 24090916; details: single concentration of 0.5 mM; cited from earlier work
plasmin [1] = molecular target: T1, plasmin (Homo sapiens, UniProt P00747); experiment: Amidolytic activity of plasmin (chromogenic substrate H-D-Val-Leu-Lys-pNA); assay type: biochemical
T1 construct: purchased Chromogenix (Milano, Italy)
T1 sequence (P00747 581-810 limits assumed): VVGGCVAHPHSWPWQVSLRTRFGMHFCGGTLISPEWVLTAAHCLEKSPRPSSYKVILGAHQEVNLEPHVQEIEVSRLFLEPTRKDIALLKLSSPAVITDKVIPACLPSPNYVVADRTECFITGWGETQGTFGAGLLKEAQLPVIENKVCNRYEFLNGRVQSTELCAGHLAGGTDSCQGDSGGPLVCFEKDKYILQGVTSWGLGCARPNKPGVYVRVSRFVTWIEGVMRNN
T1 sequence (P00747 97-580 partner limits assumed): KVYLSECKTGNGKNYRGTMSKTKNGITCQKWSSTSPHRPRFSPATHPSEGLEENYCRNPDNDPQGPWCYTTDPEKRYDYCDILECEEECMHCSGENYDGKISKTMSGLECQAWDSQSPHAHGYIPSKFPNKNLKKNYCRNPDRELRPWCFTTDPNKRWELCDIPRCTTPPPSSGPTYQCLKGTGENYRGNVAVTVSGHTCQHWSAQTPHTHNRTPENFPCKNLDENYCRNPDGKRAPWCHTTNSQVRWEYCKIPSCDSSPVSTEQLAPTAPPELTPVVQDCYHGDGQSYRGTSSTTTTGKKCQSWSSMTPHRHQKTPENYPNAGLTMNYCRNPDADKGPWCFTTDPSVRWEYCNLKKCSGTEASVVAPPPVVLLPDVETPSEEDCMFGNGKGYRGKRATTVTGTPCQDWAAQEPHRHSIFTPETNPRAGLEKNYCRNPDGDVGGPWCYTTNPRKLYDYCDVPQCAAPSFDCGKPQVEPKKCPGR
Description: (§1) The determination of amidolytic activity was performed as previously described by Okada. A detailed description of the method is given below: 0.2 mL of the examined peptides (0.15 M NaCl as contro), a buffer, and 0.1 mL of enzyme solution were mixed. The final peptide concentrations were: 0.2 mM, 2 mM, and 20 mM. The mixture was incubated at 37 °C for 3 min; then the synthetic substrate solution was added in the same buffer. After 20 min of incubation, the reaction was stopped by adding 0.1 mL of 50% acetic acid and the absorbance of the released p-nitroaniline was measured at 405 nm. The mean values from three independent experiments done in duplicate are presented. A method error of 5% was adopted as statistical error. IC50 value was considered as the concentration of inhibitor that reduces absorbance by 50%, compared with absorbance measured under the same conditions without an inhibitor. IC50 was calculated mathematically by extrapolation using a linear plot. IC50 values are presented in Table 1 and Table 2, and graphically in Figure 1.
(§2) The buffers and the enzyme solutions included: • Tris buffer—0.6 mL (pH 8.8), enzyme: urokinase (50 units/mL), synthetic substrate: pyro-Glu-Gly-Arg-pNA·HCl (0.1 mL, 3 mM); • Tris buffer—0.5 mL (pH 8.4), enzyme: thrombin (1 units/mL), synthetic substrate: H-D-Phe-Pip-Arg-pNA (0.2 mL, 0.75 mM); • Tris buffer—0.5 mL (pH 7.4), enzyme: plasmin (0.4 units/mL), synthetic substrate: H-D-Val-Leu-Lys-pNA (0.2 mL, 3 mM); • Borate buffer—0.5 mL (pH 7.5), enzyme: trypsin (0.4 units/mL), synthetic substrate: Bzl-L-Arg-pNA·HCl (0.2 mL, 8 mM); • Tris buffer—0.6 mL (pH 9.0), enzyme: kallikrein (3 units/mL), synthetic substrate: H-D-Val-Leu-Arg-pNA·2HCl (0.1 mL, 75 mM); • Tris buffer—0.6 mL (pH 8.4), enzyme: t-PA ([…]), synthetic substrate: H-D-Ile-Pro-Arg-pNA (0.1 mL, 10 mM) • Tris buffer—0.6 mL (pH 9.0), enzyme: chymotrypsin (0.4 units/mL), synthetic substrate: Suc-Phe-pNA (0.2 mL, 8 mM)

[2] = Viability of fibroblast cells, MTT assay; assay type: cell-based, Human; details: human, primary dermal fibroblast cells, 24 h, MTT, ± 2, read-out: Viability of fibroblast cells
Description: (§3) Viability of fibroblast cells was examined with the use of the MTT assay. MTT, a yellow tetrazole, is reduced to purple formazan only in living cells. Absorbance of the coloured solution was measured by a spectrophotometer.
(§4) These studies were performed on primary dermal fibroblasts cells. The cells were maintained in DMEM supplemented with 10% fetal bovine serum (FBS), 2 mM glutamin, 50 U/mL penicillin and […] streptomycin at 37 °C in a 5% CO2 incubator. For experiments, cells cultures were plated at a density of 1 × 10^6/well in six-well culture plates (Costar, St. Louis, MO, USA) in 2 mL of growth medium. Cells reached about 80% of confluency at day 2 were used for the assays.
(§5) Toxicity of the tested substances was determined using an MTT [3-(4,5-dimethylthiazol-2-yl)-2,5-diphenyltetrazolium bromide)] assay. Palmitoyl and lipoyl peptides were dissolved in DMSO (dimethyl sulfoxide), the other peptides in DMEM, and added to the cell culture medium. Simultaneously, the same concentrations of DMSO without peptides were added to cells, serving as controls. The final peptide concentrations were: 1 μM, 10 μM, and 100 μM. After 24 h incubation, the cells cultured with the tested compounds were washed with phosphate-buffered saline (PBS) and then incubated for 4 h in 2 mL of MTT solution (5 mg/mL). After removing the medium, the cells were lysed in 200 μL of DMSO with 20 μL of Sorensen’s buffer (pH 10.5, 0.1 mol/L glycine with 0.1 mol/L NaCl). The absorbance of converted dye in living cells was measured at a wavelength of 570 nm. The mean values ± SD from three independent experiments done in duplicate are presented.

[3] = tested on: primary dermal fibroblasts cells; experiment: Viability of fibroblast cells, MTT assay; assay type: cell-based, Human; details: MTT, 1-100 μM, 24 h
Description: as §3, §4, §5

thrombin = molecular target: T2, thrombin (Bos taurus, UniProt P00735); experiment: Amidolytic activity of thrombin (chromogenic substrate H-D-Phe-Pip-Arg-pNA); assay type: biochemical; details: amidolytic activity; Tris pH 8.4, 37 °C; IC50 by extrapolation using a linear plot; error 5%; read-out: IC50 Thrombin
T2 construct: purchased Lubelska Wytwórnia Szczepionek (Lublin, Poland)
Description: The determination of amidolytic activity was performed as previously described by Okada. A detailed description of the method is given below: 0.2 mL of the examined peptides (0.15 M NaCl as contro), a buffer, and 0.1 mL of enzyme solution were mixed. The final peptide concentrations were: 0.2 mM, 2 mM, and 20 mM. The mixture was incubated at 37 °C for 3 min; then the synthetic substrate solution was added in the same buffer. […] The mean values from three independent experiments done in duplicate are presented. A method error of 5% was adopted as statistical error. […] IC50 was calculated mathematically by extrapolation using a linear plot.

plasmin [4] = molecular target: T1, plasmin; design: method as in PMID 27434836; details: competitive and reversible inhibitor; cited from earlier work
tryptase = tested on: tryptase; design: method as in PMID 27434836; details: selectivity; cited from earlier work
kallikrein 5 = tested on: kallikrein 5; design: method as in PMID 27434836; details: selectivity; cited from earlier work
neutrophil elastase = tested on: neutrophil elastase; design: method as in PMID 27434836; details: selectivity; cited from earlier work
urokinase [5] = molecular target: T3, urokinase (Homo sapiens, UniProt P00749); design: method as in PMID 27434836; details: competitive and reversible inhibitor; cited from earlier work
T3 construct: purchased Sigma (Schnelldorf, Germany)

kallikrein 7 = tested on: kallikrein 7; design: method as in PMID 27434836; details: selectivity; cited from earlier work
collagen synthesis = tested on: collagen synthesis; design: method as in PMID 19268583; details: cited from earlier work
face wrinkles = tested on: face wrinkles; design: method as in PMID 19570099; details: oil-in-water cream twice daily for 8 and 12 weeks; cited from earlier work
human dermal fibroblasts = tested on: human dermal fibroblasts; design: method as in PMID 23320752; details: cited from earlier work
[6] = design: method as in PMID 25143811; details: stratum corneum, epidermis, dermis; cited from earlier work
urokinase [7] = molecular target: T3, urokinase; experiment: Amidolytic activity of urokinase (chromogenic substrate pyro-Glu-Gly-Arg-pNA); assay type: biochemical; details: amidolytic activity; Tris pH 8.8, 37 °C; IC50 by extrapolation using a linear plot; error 5%; read-out: IC50 Urokinase
Description: as §1, §2

Fibroblasts = experiment: Collagen biosynthesis, 5[3H]-proline incorporation in fibroblasts; assay type: cell-based, Human; details: 24 h, ± 2
Description: In collagen biosynthesis assays cells were counted in a haemocytometer and incorporation of a radioactive precursor 5[^3H]-proline into collagen was measured. Total protein synthesis was calculated from the sum of radioactivity of collagenase-resistant proteins and collagen digest.
Fibroblasts were cultured in six-well plates until confluence. Then they were incubated for 24 h in growth medium in the absence or presence of the tested peptides and 5[^3H]-proline (5 µCi/mL, 28 Ci/mM). The final peptide concentrations were: 10 μM, 50 μM and 100 μM. In accordance with the method proposed by Peterkofsky and Diegelmann, incorporation of the radioactive precursor into collagen was determined by digesting the proteins with purified Clostridium histolyticum collagenase. Finally, the monolayers were washed with sterile 10mM PBS, pH 7.4 four times, and cell membranes were disrupted using a sonicator. Aliquots of the cell homogenate were removed for protein measurement using the BCA™ Protein Assay Kit (Pierce, Waltham, MA USA). The results are shown as combined values for cell plus medium fractions.

fibroblast cells = experiment: DNA biosynthesis, [3H] thymidine incorporation in fibroblasts; assay type: cell-based, Human; details: for DNA biosynthesis: 24 h, ± 2
Description: In the radioactive method of DNA measurement in the liquid sample, the radioactive activity of the sample was measured. This technique involves mixing a radioactive material with a scintillation fluid/liquid (which contains a scintillator), resulting in photon emission. This emission is counted by a suitable detector.
To examine the effect of the studied compounds on DNA biosynthesis of fibroblast cells, they were plated in 24-well tissue culture dishes at 1 × 10^5 cells per well with 1 mL of growth medium. The plates were incubated after 48 h with the examined peptides and 0.5 μCi of [^3H] thymidine (6.7 Ci/mmol) at 37 °C. The final peptide concentrations were: 10 μM, 50 μM, and 100 μM. After 24 h incubation, the cells were rinsed with PBS three times and twice with 5% trichloroacetic acid. To measure the radioactivity incorporated into DNA, the cells were solubilized with 1 mL of 0.1 M sodium hydroxide containing 1% SDS and an addition of scintillation liquid (9 mL) (https://www.perkinelmer.com/pl/category/scintillation-cocktails). Radioactivity was determined in a scintillation counter, i.e., Liquid Scintillation Analyzer Tri-Carb 2810 TR (Perkin Elmer, Waltham, MA USA)) with Quanto Smart TM software (Perkin Elmer).

[8] = amidolytic activity, Tris pH 7.4, 37 °C, IC50 by extrapolation using a linear plot, error 5%, read-out: IC50 Plasmin

| Compound | IC50 (plasmin [1]; [8]) [µM] | IC50 (thrombin) [µM] | IC50 (urokinase [7]) [µM] | viability at 24 h, 1 µmol/L [2] [%] | viability at 24 h, 10 µmol/L [2] [%] | viability at 24 h, 100 µmol/L [2] [%] | cytotoxicity / cell growth effect on fibroblasts [3] | increase of collagen synthesis (collagen synthesis) | Collagen biosynthesis (Fibroblasts; 50 µmol/L) | Collagen biosynthesis (Fibroblasts; 100 µmol/L) | DNA biosynthesis (fibroblast cells; 10 µmol/L) | DNA biosynthesis (fibroblast cells; 50 µmol/L) | DNA biosynthesis (fibroblast cells; 100 µmol/L) | further results |
| --- | --- | --- | --- | --- | --- | --- | --- | --- | --- | --- | --- | --- | --- | --- |
| C[C@@H](O)[C@H](NC(=O)[C@H](CCCCN)NC(=O)CCCCC1CCSS1)C(=O)N[C@H](C(=O)N[C@@H](CCCCN)C(=O)N[C@@H](CO)C(=O)O)[C@@H](C)O (mixture of isomers) [Peptide 3, Lip-Lys-Thr-Thr-Lys-Ser-OH] | 470 ± 23 | 12800 ± 640 |  | 94 | 81 | 81 | did not exhibit fibroblast growth |  |  |  |  |  |  | increase of collagen biosynthesis (collagen biosynthesis): over 150% |
| N=C(N)c1ccc(CNC(=O)C(CCc2ccccc2)NC(=O)[C@@H](CO)NS(=O)(=O)Cc2ccccc2)cc1 (stereo partly drawn) [BSFAB, benzylsulfonyl-D-Ser-homoPhe-(4-amidinobenzylamide)] |  |  |  |  |  |  |  |  |  |  |  |  |  | Ki (plasmin [4]): 0.029 µM; inhibition of tryptase (tryptase): did not inhibit; inhibition of kallikrein 5 (kallikrein 5): did not inhibit; inhibition of neutrophil elastase (neutrophil elastase): did not inhibit; Ki (urokinase [5]): 0.025 µM; inhibition of kallikrein 7 (kallikrein 7): did not inhibit |
| CCCCCCCCCCCCCCCC(=O)N[C@@H](CCCCN)C(=O)N[C@H](C(=O)N[C@H](C(=O)N[C@@H](CCCCN)C(=O)N[C@@H](CO)C(=O)O)[C@@H](C)O)[C@@H](C)O [Peptide 4, Pal-Lys-Thr-Thr-Lys-Ser-OH, reference compound] (HELM PEPTIDE1{[CCCCCCCCCCCCCCCC(=O)[*:2]].K.T.T.K.S}$$$$V2.0) |  |  |  | 97 | 91 | 85 | did not exhibit fibroblast growth | over 150% |  |  |  |  |  | length of wrinkles, age spots, skin texture versus placebo cream (face wrinkles): markedly improved; collagen production (human dermal fibroblasts): stimulates collagen production in a concentration-dependent manner; retention in skin layers [6]: retained in different skin layers |
| H-KTTKS-OH [Peptide 1, H-Lys-Thr-Thr-Lys-Ser-OH, reference compound] | 280 ± 14 | 7810 ± 390 |  | 95 | 82 | 80 | did not exhibit fibroblast growth | no such effect |  |  |  |  |  |  |

Now from value to compound, other results behind:

| IC50 (plasmin [1]; [8]) [µM] | IC50 (thrombin) [µM] | IC50 (urokinase [7]) [µM] | Compound | viability at 24 h, 1 µmol/L [2] [%] | viability at 24 h, 10 µmol/L [2] [%] | viability at 24 h, 100 µmol/L [2] [%] | cytotoxicity / cell growth effect on fibroblasts [3] | increase of collagen synthesis (collagen synthesis) | Collagen biosynthesis (Fibroblasts; 50 µmol/L) | Collagen biosynthesis (Fibroblasts; 100 µmol/L) | DNA biosynthesis (fibroblast cells; 10 µmol/L) | DNA biosynthesis (fibroblast cells; 50 µmol/L) | DNA biosynthesis (fibroblast cells; 100 µmol/L) | further results |
| --- | --- | --- | --- | --- | --- | --- | --- | --- | --- | --- | --- | --- | --- | --- |
| 5450 ± 270 | 810 ± 41 | 2360 ± 120 | Ac-RTTKS-OH [Peptide 26, Ac-Arg-Thr-Thr-Lys-Ser-OH] | 112 | 137 | 150 | exhibited cell growth effects; also recorded: showed proliferative effect; also recorded: exhibited the effect of cell growth |  | 77 % of Control | 108 % of Control | 126 % of Control | 112 % of Control | 128 % of Control | Collagen biosynthesis (Fibroblasts; 10 µmol/L): 166 % of Control; DNA synthesis (fibroblast cells; 10, 50, 100 μM): increased DNA synthesis was observed at all concentrations |
| 720 ± 36 | 4650 ± 233 | 17600 ± 880 | H-KTTRS-NH2 [Peptide 13, H-Lys-Thr-Thr-Arg-Ser-NH2] | 121 | 139 | 145 | exhibited cell growth effects; also recorded: showed proliferative effect; also recorded: exhibited the effect of cell growth |  | 155 % of Control | 49 % of Control | 84 % of Control | 86 % of Control | 74 % of Control | IC50 (plasmin [1]; converted from IC50 of Table 1, read-out: -logIC50 Plasmin (converted)): 708 µM |
